Measurements reported in BindingDB's records for doi:10.1016/s0968-0896(02)00069-x (Universidad De Navarra, 2002).
Where a name gives a salt, the structure may show the parent alone.

The compounds below were run against Cyclin-dependent kinase 1/G2/mitotic-specific cyclin-B (Marthasterias glacialis, UniProt P15206+Q9DGD3) (assay: Kinase Inhibition Assay). Conditions: pH 7.2; 30 °C.
Protocol: Kinase activities were assayed in buffers containing substrate, enzyme, and inhibitor at 30 °C in the presence of 15 uM ATP/ [gamma-32P] ATP. 32P incorporation was measured with a scintillation counter. The IC50 is the inhibitor concentration, which inhibits 50% of kinase activity that catalyzes the transfer of the terminal phosphate from 32P labeled ATP to the substrate.

Cyclin-dependent kinase 1/G2/mitotic-specific cyclin-B, sequence (Q9DGD3 whole entry): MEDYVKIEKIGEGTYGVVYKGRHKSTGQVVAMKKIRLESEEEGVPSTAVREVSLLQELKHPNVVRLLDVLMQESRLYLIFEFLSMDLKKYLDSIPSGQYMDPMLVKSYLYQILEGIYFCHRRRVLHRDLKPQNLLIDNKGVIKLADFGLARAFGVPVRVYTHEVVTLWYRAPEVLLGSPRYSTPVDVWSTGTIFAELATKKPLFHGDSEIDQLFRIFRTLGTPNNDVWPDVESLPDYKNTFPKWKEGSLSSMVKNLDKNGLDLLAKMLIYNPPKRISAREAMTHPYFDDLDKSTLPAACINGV
Cyclin-dependent kinase 1/G2/mitotic-specific cyclin-B, sequence (P15206 whole entry): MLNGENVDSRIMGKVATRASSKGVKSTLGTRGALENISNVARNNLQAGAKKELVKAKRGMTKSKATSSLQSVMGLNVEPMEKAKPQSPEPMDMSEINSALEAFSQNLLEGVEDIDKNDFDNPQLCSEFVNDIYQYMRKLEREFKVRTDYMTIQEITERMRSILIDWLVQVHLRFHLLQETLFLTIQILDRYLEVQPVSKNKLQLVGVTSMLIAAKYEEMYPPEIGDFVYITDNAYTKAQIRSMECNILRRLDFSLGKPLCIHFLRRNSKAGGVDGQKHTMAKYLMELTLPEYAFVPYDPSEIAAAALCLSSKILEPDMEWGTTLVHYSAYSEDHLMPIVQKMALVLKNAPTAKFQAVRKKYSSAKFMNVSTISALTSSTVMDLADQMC

Row | SMILES | IC50 [µM]
1 | Nc1n[nH]c2nc3ccccc3nc12 [1H-pyrazolo[3,4-b]quinoxalin-3-amine] | 0.6
2 | Cc1cc2nc3[nH]nc(N)c3nc2cc1C [3-Amino-6,7-dimethyl-1H-pyrazolo[3,4-b]quinoxaline] | 21
3 | CN(C)CCCn1nc(N)c2nc3ccccc3nc21 [3-Amino-1-(3-dimethylamino-prop-1-yl)-1H-pyrazolo[3,4-b]quinoxaline hydrochloride] | > 10
4 | Clc1ccc2nc3[nH]nc(Cl)c3nc2c1 [3,6-Dichloro-1H-pyrazolo[3,4-b]quinoxaline] | 15
5 | Cc1ccc2nc3[nH]nc(N)c3nc2c1 [3-Amino-6-methyl-1H-pyrazolo[3,4-b]quinoxaline] | 3.5
6 | CN(C)CCn1nc(N)c2nc3cc(Cl)ccc3nc21 [3-Amino-6-chloro-1-(2-dimethylamino-ethyl)-1H-pyrazolo[3,4-b]quinoxaline] | > 10
7 | COc1ccc2[nH]c3nnc(N)c-3nc2c1 [6-methoxy-1H-pyrazolo[3,4-b]quinoxalin-3-amine] | 4.8
8 | Cc1cc2nc3c(N)nn(CCCN(C)C)c3nc2cc1C [1-[3-(dimethylamino)propyl]-6,7-dimethyl-1H-pyrazolo[3,4-b]quinoxalin-3-amine] | > 10
9 | CCN(CC)CCn1nc(N)c2nc3cc(C)c(C)cc3nc21 [3-Amino-6,7-dimethyl-1-(2-diethylamino-ethyl)-1H-pyrazolo[3,4-b]quinoxaline] | > 10
10 | CN(C)CCCn1nc(N)c2nc3cc(Cl)ccc3nc21 [6-chloro-1-[3-(dimethylamino)propyl]-1H-pyrazolo[3,4-b]quinoxalin-3-amine] | > 10
11 | CCN(CC)CCn1nc(N)c2nc3cc(Cl)ccc3nc21 [6-chloro-1-[2-(diethylamino)ethyl]-1H-pyrazolo[3,4-b]quinoxalin-3-amine] | > 10
12 | Nc1n[nH]c2nc3ccc(C(F)(F)F)cc3nc12 [3-Amino-6-trifluoromethyl-1H-pyrazolo[3,4-b]quinoxaline] | 4.5
13 | Nc1n[nH]c2nc3ccc(Cl)cc3nc12 [6-chloro-1H-pyrazolo[3,4-b]quinoxalin-3-amine] | 4.56
14 | Nc1nn(C(=O)c2ccncc2)c2nc3ccccc3nc12 [3-amino-1-(pyridin-4-yl-carbonyl)-1H-pyrazolo[3,4-b]quinoxaline] | > 10
15 | Clc1n[nH]c2nc3ccccc3nc12 [3-Chloro-1H-pyrazolo[3,4-b]quinoxaline] | 22
16 | CN(C)CCn1nc(N)c2nc3ccccc3nc21 [1-[2-(dimethylamino)ethyl]-1H-pyrazolo[3,4-b]quinoxalin-3-amine] | > 10
17 | CCN(CC)CCn1nc(N)c2nc3ccccc3nc21 [1-[2-(diethylamino)ethyl]-1H-pyrazolo[3,4-b]quinoxalin-3-amine] | > 10
